According to patent US11357782B2, “Treprostinil administration by inhalation” (priority 2006, dated 2022):
“Also recorded” adds a separate entry of the source.

What was measured:
[1] = tested on: patients with severe pulmonary hypertension; test: Study ii) placebo controlled dose escalation study of inhaled treprostinil, hemodynamics and tolerability; details: for maximal decrease of PVR to: 6 min inhalation
Experimental: Study ii) was a randomized, open-label, single blind, placebo controlled study. […] A total number of 31 patients inhaled either placebo or treprostinil; each patient received one inhalation. […] Inhalation time was 6 minutes in all groups.

[2] = tested on: patients with severe pulmonary hypertension; test: Study iii) reduction of inhalation time at fixed 15 μg dose, pulsed ultrasonic nebulizer
Experimental: Study iii) was a randomized, open-label, single blind study. The primary objective was to explore the shortest possible inhalation time for a 15 μg dose of inhaled treprostinil. A total of 48 patients inhaled one dose of TRE during right heart catheter investigation. The drug was applied in 18, 9, 3, 2 or 1 breaths. The aerosol was generated by a pulsed ultrasonic nebulizer (OPTINEB®, Nebutec, Elsenfeld, Germany) in cycles consisting of 2 seconds aerosol production (pulse) and 4 seconds pause. The device included an opto-acoustical trigger for the patient to synchronize the inspiration to the end of the aerosol pulse, thereby providing exact dosage. The TRE dose of 15 μg was either generated during 18 cycles (OPTINEB® filled with 100 μg/ml TRE, n=6), 9 cycles (200 μg/ml TRE, n=6), 3 cycles (600 μg/ml TRE, n=21), 2 cycles (1000m/m1 TRE, n=7) or 1 cycle (2000 μg/ml TRE, n=8). Hemodynamics and gas exchange were recorded for 120-180 minutes.

[3] = Aerosol quality by laser diffractometry (Respimat SMI); format: physicochemical; details: treprostinil-aerosol from Respimat SMI
Source text: Placebo and treprostinil was applied with the Respimat® SMI. […] Eur. Respir.

[4] = Treprostinil plasma concentrations after single inhalation (study ii), LC-MS/MS; details: for Cmax: human, plasma, inhaled
Experimental: Treprostinil plasma concentrations were assessed in study ii) at 10, 15, 30, 60 and 120 minutes after inhalation. Treprostinil quantification was done by Alta Analytical Laboratory (El Dorado Hills, Calif., USA) with a validated liquid chromatography atmospheric-pressure ionization tandem mass spectrometry as previously described Wade M., et al. J. Clin. Pharmacol. 2004; 44:503-9. Mixed venous blood was drawn at the depicted time points (FIG. 11) after inhalation, centrifuged and the plasma frozen at −80° C. until temperature controlled shipping on dry ice.

[5] = 15 μg, 1 pulse, 2000 μg/ml, n=8
[6] = 15 μg, 2 pulses, 1000 μg/ml, n=7
[7] = 15 μg, 3 pulses, 600 μg/ml, n=21
[8] = 15 μg, 9 pulses, 200 μg/ml, n=6
[9] = 15 μg, 18 pulses, 100 μg/ml, n=6

With CCCCC[C@H](O)CC[C@@H]1[C@H]2Cc3cccc(OCC(=O)[O-])c3C[C@H]2C[C@H]1O.[Na+] [TRE] the “cardiac output increased to a maximum of” value ([1]; 30 μg) was 106.8±3.2%, the side effects ([1]; 30 μg TRE, n=1 each) was “flushing; also recorded: mild transient bronchoconstriction” and the “duration of hemodynamic changes” value ([1]; 30 μg dose group, 3 hour observation period) was “had just returned to baseline within this period”. The “maximal decrease of PVR to” value ([1]; 30 μg, n=8) was 76.5±4.7 % of baseline values, the “cardiac output increased to a maximum of” value ([1]; 60 μg) was 122.9±4.3% and the side effects ([1]; 60 μg TRE, n=3) was “mild transient cough”. For the same compound, the “duration of pulmonary vasodilation” value ([1]; 60 μg and 90 μg (and 120 μg) TRE doses, surpassing observation period) was over 3 h, the “maximal decrease of PVR to” value ([1]; 60 μg, n=6) was 73.7±5.8 % of baseline values and the “cardiac output increased to a maximum of” value ([1]; 90 μg) was 114.3±4.8%. The “maximal decrease of PVR to” value ([1]; 90 μg, n=6) was 73.3±4.3 % of baseline values, the “cardiac output increased to a maximum of” value ([1]; 120 μg TRE) was 111.3±3.9% and the arterial oxygen saturation ([1]; 120 μg TRE, all 3 patients) was “significantly decreased”. For the same compound, the side effects ([1]; 120 μg TRE, n=1 each) was “moderate bronchoconstriction; also recorded: severe headache”, the “maximal decrease of PVR to” value ([1]; 120 μg, n=3) was 65.4±4.1 % of baseline values and the gas exchange ([1]; doses up to 90 μg TRE) was “not affected”. For the same compound, the “effects on systemic arterial pressure” value ([1]; even at the highest doses) was “only minor effects”, the “taste of the aerosol” value ([1]; metacresol-containing TRE solution) was “bad taste of the TRE aerosol was reported by most patients” and the tolerated inhaled dose ([1]; single inhalation) was “up to 90 μg”. For the same compound, the reported side effects ([2]; 15 μg, 48 patients, cough n=6, headache n=2, jaw pain n=1) was “mild transient cough; also recorded: mild headache; also recorded: mild jaw pain”, the cardiac output ([2]; 15 μg, all groups) was “moderately increased” and the systemic arterial pressure ([2]; 15 μg, all groups) was “not significantly affected”. The “PAP reduced to” value [2, 5] was 88±5.4%, the “PVR reduced to” value [2, 5] was 80.3±5.2% and the “PAP reduced to” value [2, 6] was 86±4%. The “PVR reduced to” value [2, 6] was 77.4±4.5%, the “PAP reduced to” value [2, 7] was 81.1±4.1% and the “PVR reduced to” value [2, 7] was 71.2±6.0%. The “PAP reduced to” value [2, 8] was 84.2±4.1%, the “PVR reduced to” value [2, 8] was 72.9±4.9% and the “PAP reduced to” value [2, 9] was 84.2±4.5%. For the same compound, the “PVR reduced to” value [2, 9] was 76.3±5.6%, the “concentration safely utilized without considerable side effects” value ([2]; metacresol-free TRE solution, modified OPTINEB) was at most 2000 µg/mL and the “duration of pulmonary vasodilation” value ([2]; single breath of 2000 μg/ml, 15 μg, compared to placebo inhalation) was over 3 h. For the same compound, the aerosol particles mass median aerodynamic diameter [3] was 4 to 5 µm, the “time of peak plasma concentrations after inhalation” value ([4]; 30-120 μg, 6 min inhalation) was 10 to 15 min and the Cmax ([4]; 30 ug) was 0.00065 ± 0.00028 µg/mL. For the same compound, the Cmax ([4]; 60 ug) was 0.00159 ± 0.00017 µg/mL, the Cmax ([4]; 90 ug) was 0.00174 µg/mL and the Cmax ([4]; 120 ug) was 0.00351 ± 0.00104 µg/mL.
